{"source": "patent US20100192451A1", "about": "“MOSQUITO ATTRACTANT COMPOSITIONS AND METHODS” (priority 2008, published 2010)", "key": {"gravid Ae. aegypti [1]": {"system": "gravid Ae. aegypti", "assay": "Egg-laying (contact-mediated) binary choice bioassay", "type": "in vivo, Aedes aegypti", "conditions": "for induction of egg laying by synthetic compounds: 1, 10 and 100 ng in 30 mL water", "description": "Modifications of the olfactory- and contact-mediated bioassays previously described (Trexler J D, Apperson C S, Schal C (1998) J Med Entomol 35:967-976) were used to measure the response of gravid mosquitoes to plant infusions (or bacterial compounds). Briefly, two 125-mL polypropylene cups (test and control) were placed randomly in diagonal corners of a Plexiglas cage (30×30×30 cm) that was fitted with a stockinet cloth sleeve (AlbaHealth, Rockwood, Tenn.). Each cup was filled with 30 mL of either test or control solution. White paper sleeves were placed around each bioassay cup to mask visual cues presented by darkly colored leaf infusions. Adults had ad libitum access to water contained in a polypropylene cup that was fitted with a lid with a cotton wick protruding through a hole in the lid. For egg-laying bioassays, either one or five gravid females were released in each replicate cage. Cages were placed randomly on racks in a room where environmental conditions were the same as in the insectary. After a 24 h exposure period, eggs laid on the surface of the water in the test and control cups were counted. In olfactory bioassays, 10 gravid females were released in each bioassay cage. A circular metal wire-mesh screen covered with insect glue (Tanglefoot; Tanglefoot Co.) was inserted in each cup on top of an insert cut from a 120-mL polypropylene cup. Sticky screens were placed above test and control media, 2.5 cm below the lip of each cup. The mesh size of the metal screen prevented females from entering without landing on the screen. Therefore, positive or negative responses to the test infusions were measured by the numbers of females trapped during a 24 h exposure period on the sticky screen in the test and control cups.\nFor each replicate bioassay cage, the numbers of eggs laid in the test and control cups were converted to the proportion of the total number of eggs laid. The proportions were subjected to an arcsin√x transformation to achieve approximate normality. A one-tailed paired t test was used to determine whether differences in the mean transformed proportion of eggs deposited in test and control cups were statistically significant.\nSynthetic compounds were bioassayed by placing hexane solutions on the surface of sterile distilled water; water in control cups was treated with hexane alone. The hexane was evaporated in a fume hood before bioassays commenced. Each bioassay was with a single female and lasted 72 h."}, "gravid Ae. aegypti [2]": {"system": "gravid Ae. aegypti", "assay": "Egg-laying (contact-mediated) binary choice bioassay", "type": "in vivo, Aedes aegypti", "conditions": "for Eggs per assay: five females per assay, 24-h"}, "[3]": {"conditions": "dose 1 ng in 30 mL water, single female, 72 h"}, "[4]": {"conditions": "dose 10 ng in 30 mL water, single female, 72 h"}, "[5]": {"conditions": "dose 10 ng, single female, 72 h"}, "[6]": {"conditions": "dose 100 ng in 30 mL water, single female, 72 h"}, "[7]": {"conditions": "dose 100 ng, single female, 72 h"}, "[8]": {"conditions": "dose 0.01 mg, single female, 72 h"}, "[9]": {"conditions": "dose 0.1 mg, single female, 72 h"}, "[10]": {"conditions": "dose 1.0 mg, single female, 72 h"}, "[11]": {"conditions": "1 ng, five females, 24 h assays"}, "[12]": {"conditions": "dose 0.01 ng, five females per assay, 24-h"}, "[13]": {"conditions": "dose 0.1 ng, five females per assay, 24-h"}, "[14]": {"conditions": "dose 1.0 ng, five females per assay, 24-h"}}}
{"smiles": "CCCCCCCCCCCC(=O)O", "note": "[Dodecanoic acid]", "values": [{"measurement": "Treatment, % (eggs in treatment cup)", "setting": "gravid Ae. aegypti [1]; [3]", "value": 47.0, "unit": "%"}, {"measurement": "Eggs per assay", "setting": "gravid Ae. aegypti [1]; dose 1 ng, single female, 72 h", "value": "67.3 ± 4.0"}, {"measurement": "Treatment, % (eggs in treatment cup)", "setting": "gravid Ae. aegypti [1]; [4]", "value": 43.4, "unit": "%"}, {"measurement": "Eggs per assay", "setting": "gravid Ae. aegypti [1]; [5]", "value": "66.3 ± 3.1"}, {"measurement": "Treatment, % (eggs in treatment cup)", "setting": "gravid Ae. aegypti [1]; [6]", "value": 47.6, "unit": "%"}, {"measurement": "Eggs per assay", "setting": "gravid Ae. aegypti [1]; [7]", "value": "63.8 ± 3.4"}, {"measurement": "Eggs per assay", "setting": "gravid Ae. aegypti [1]; [8]", "value": "66.5 ± 4.2"}, {"measurement": "Treatment, % (eggs in treatment cup)", "setting": "gravid Ae. aegypti [1]; [8]", "value": 52.2, "unit": "%"}, {"measurement": "Eggs per assay", "setting": "gravid Ae. aegypti [1]; [9]", "value": "64.4 ± 2.9"}, {"measurement": "Treatment, % (eggs in treatment cup)", "setting": "gravid Ae. aegypti [1]; [9]", "value": 45.8, "unit": "%"}, {"measurement": "Eggs per assay", "setting": "gravid Ae. aegypti [1]; [10]", "value": "60.2 ± 2.8"}, {"measurement": "Treatment, % (eggs in treatment cup)", "setting": "gravid Ae. aegypti [1]; [10]", "value": 42.2, "unit": "%"}]}
{"smiles": "CCCCCCCCCCCCCC(=O)O", "note": "[Tetradecanoic acid]", "values": [{"measurement": "eggs per female in 24 h", "setting": "gravid Ae. aegypti [1]; [11]", "value": "43.4±3.9"}, {"measurement": "diversion of oviposition to treated water", "setting": "gravid Ae. aegypti [1]; 10 ng, single female, 72 h", "value": "diverted the greatest amount of oviposition to the treated water"}, {"measurement": "induction of egg laying by synthetic compounds", "setting": "gravid Ae. aegypti [1]; single female, 72 h", "value": "highly effective at inducing egg laying"}, {"measurement": "Eggs per assay", "setting": "gravid Ae. aegypti [1]; [12]", "value": "318.5 ± 14.4"}, {"measurement": "Treatment, % (eggs in treatment cup)", "setting": "gravid Ae. aegypti [1]; [12]", "value": 52.3, "unit": "%"}, {"measurement": "Eggs per assay", "setting": "gravid Ae. aegypti [1]; [13]", "value": "232.1 ± 22.3"}, {"measurement": "Treatment, % (eggs in treatment cup)", "setting": "gravid Ae. aegypti [1]; [13]", "value": 57.8, "unit": "%"}, {"measurement": "Treatment, % (eggs in treatment cup)", "setting": "gravid Ae. aegypti [1]; [3]", "value": 45.4, "unit": "%"}, {"measurement": "Eggs per assay", "setting": "gravid Ae. aegypti [1]; [14]", "value": "216.8 ± 19.4"}, {"measurement": "Treatment, % (eggs in treatment cup)", "setting": "gravid Ae. aegypti [1]; [14]", "value": 76.9, "unit": "%"}, {"measurement": "Eggs per assay", "setting": "gravid Ae. aegypti [1]; dose 1 ng, single female, 72 h", "value": "79.6 ± 2.7"}, {"measurement": "Treatment, % (eggs in treatment cup)", "setting": "gravid Ae. aegypti [1]; [4]", "value": 81.0, "unit": "%"}, {"measurement": "Treatment, % (eggs in treatment cup)", "setting": "gravid Ae. aegypti [1]; dose 10 ng, five females per assay, 24-h", "value": 57.9, "unit": "%"}, {"measurement": "Eggs per assay", "setting": "gravid Ae. aegypti [1]; [5]", "value": "87.7 ± 5.1"}, {"measurement": "Treatment, % (eggs in treatment cup)", "setting": "gravid Ae. aegypti [1]; [6]", "value": 62.1, "unit": "%"}, {"measurement": "Treatment, % (eggs in treatment cup)", "setting": "gravid Ae. aegypti [1]; dose 100 ng, five females per assay, 24-h", "value": 38.7, "unit": "%"}, {"measurement": "Eggs per assay", "setting": "gravid Ae. aegypti [1]; [7]", "value": "80.2 ± 5.2"}, {"measurement": "oviposition stimulation", "setting": "gravid Ae. aegypti [2]; [11]", "value": "highly stimulatory"}, {"measurement": "Eggs per assay", "setting": "gravid Ae. aegypti [2]; dose 10 ng", "value": "196.4 ± 23.2"}, {"measurement": "Eggs per assay", "setting": "gravid Ae. aegypti [2]; dose 100 ng", "value": "260.4 ± 30.9"}]}
{"smiles": "CCCCCCCCCC(=O)O", "note": "[Decanoic acid]", "values": [{"measurement": "Treatment, % (eggs in treatment cup)", "setting": "gravid Ae. aegypti [1]; [3]", "value": 43.7, "unit": "%"}, {"measurement": "Eggs per assay", "setting": "gravid Ae. aegypti [1]; dose 1 ng, single female, 72 h", "value": "60.0 ± 5.6"}, {"measurement": "Treatment, % (eggs in treatment cup)", "setting": "gravid Ae. aegypti [1]; [4]", "value": 52.2, "unit": "%"}, {"measurement": "Eggs per assay", "setting": "gravid Ae. aegypti [1]; [5]", "value": "61.3 ± 5.0"}, {"measurement": "Treatment, % (eggs in treatment cup)", "setting": "gravid Ae. aegypti [1]; [6]", "value": 45.8, "unit": "%"}, {"measurement": "Eggs per assay", "setting": "gravid Ae. aegypti [1]; [7]", "value": "67.0 ± 7.0"}]}
{"smiles": "CCCCCCCCCCCCCCCC(=O)OC", "note": "[Hexadecanoic acid, methyl ester]", "values": [{"measurement": "Treatment, % (eggs in treatment cup)", "setting": "gravid Ae. aegypti [1]; [3]", "value": 34.7, "unit": "%"}, {"measurement": "Eggs per assay", "setting": "gravid Ae. aegypti [1]; dose 1 ng, single female, 72 h", "value": "51.0 ± 3.5"}, {"measurement": "Treatment, % (eggs in treatment cup)", "setting": "gravid Ae. aegypti [1]; [4]", "value": 59.1, "unit": "%"}, {"measurement": "Eggs per assay", "setting": "gravid Ae. aegypti [1]; [5]", "value": "51.3 ± 3.0"}, {"measurement": "Treatment, % (eggs in treatment cup)", "setting": "gravid Ae. aegypti [1]; [6]", "value": 60.4, "unit": "%"}, {"measurement": "Eggs per assay", "setting": "gravid Ae. aegypti [1]; [7]", "value": "58.6 ± 3.8"}]}
{"smiles": "CCCCCCCCCCCCCCCC(=O)O", "note": "[Hexadecanoic acid]", "values": [{"measurement": "Treatment, % (eggs in treatment cup)", "setting": "gravid Ae. aegypti [1]; [3]", "value": 53.4, "unit": "%"}, {"measurement": "Eggs per assay", "setting": "gravid Ae. aegypti [1]; dose 1 ng, single female, 72 h", "value": "63.7 ± 4.2"}, {"measurement": "Treatment, % (eggs in treatment cup)", "setting": "gravid Ae. aegypti [1]; [4]", "value": 43.2, "unit": "%"}, {"measurement": "Eggs per assay", "setting": "gravid Ae. aegypti [1]; [5]", "value": "63.5 ± 4.9"}, {"measurement": "Treatment, % (eggs in treatment cup)", "setting": "gravid Ae. aegypti [1]; [6]", "value": 38.2, "unit": "%"}, {"measurement": "Eggs per assay", "setting": "gravid Ae. aegypti [1]; [7]", "value": "71.8 ± 4.8"}]}
{"smiles": "CCCCCCCCCCCCCC(=O)OC", "note": "[Tetradecanoic acid, methyl ester]", "values": [{"measurement": "induction of egg laying by synthetic compounds", "setting": "gravid Ae. aegypti [1]; single female, 72 h", "value": "highly effective at inducing egg laying"}, {"measurement": "Treatment, % (eggs in treatment cup)", "setting": "gravid Ae. aegypti [1]; [3]", "value": 55.0, "unit": "%"}, {"measurement": "Eggs per assay", "setting": "gravid Ae. aegypti [1]; dose 1 ng, single female, 72 h", "value": "68.3 ± 5.4"}, {"measurement": "Treatment, % (eggs in treatment cup)", "setting": "gravid Ae. aegypti [1]; [4]", "value": 70.2, "unit": "%"}, {"measurement": "Eggs per assay", "setting": "gravid Ae. aegypti [1]; [5]", "value": "64.0 ± 7.1"}, {"measurement": "Treatment, % (eggs in treatment cup)", "setting": "gravid Ae. aegypti [1]; [6]", "value": 51.0, "unit": "%"}, {"measurement": "Eggs per assay", "setting": "gravid Ae. aegypti [1]; [7]", "value": "70.6 ± 6.0"}]}
{"smiles": "CCCCCCCCC(=O)O", "note": "[Nonanoic acid]", "values": [{"measurement": "induction of egg laying by synthetic compounds", "setting": "gravid Ae. aegypti [1]; single female, 72 h", "value": "highly effective at inducing egg laying"}, {"measurement": "Treatment, % (eggs in treatment cup)", "setting": "gravid Ae. aegypti [1]; [3]", "value": 38.6, "unit": "%"}, {"measurement": "Eggs per assay", "setting": "gravid Ae. aegypti [1]; dose 1 ng, single female, 72 h", "value": "70.9 ± 4.0"}, {"measurement": "Treatment, % (eggs in treatment cup)", "setting": "gravid Ae. aegypti [1]; [4]", "value": 58.3, "unit": "%"}, {"measurement": "Eggs per assay", "setting": "gravid Ae. aegypti [1]; [5]", "value": "74.3 ± 6.1"}, {"measurement": "Treatment, % (eggs in treatment cup)", "setting": "gravid Ae. aegypti [1]; [6]", "value": 69.1, "unit": "%"}, {"measurement": "Eggs per assay", "setting": "gravid Ae. aegypti [1]; [7]", "value": "80.0 ± 3.3"}]}
{"smiles": "CCCCCCCCCCCCCCCCCC(=O)O", "note": "[Octadecanoic acid]", "values": [{"measurement": "Treatment, % (eggs in treatment cup)", "setting": "gravid Ae. aegypti [1]; [3]", "value": 55.1, "unit": "%"}, {"measurement": "Eggs per assay", "setting": "gravid Ae. aegypti [1]; dose 1 ng, single female, 72 h", "value": "71.3 ± 3.3"}, {"measurement": "Treatment, % (eggs in treatment cup)", "setting": "gravid Ae. aegypti [1]; [4]", "value": 46.4, "unit": "%"}, {"measurement": "Eggs per assay", "setting": "gravid Ae. aegypti [1]; [5]", "value": "69.0 ± 3.6"}, {"measurement": "Treatment, % (eggs in treatment cup)", "setting": "gravid Ae. aegypti [1]; [6]", "value": 58.4, "unit": "%"}, {"measurement": "Eggs per assay", "setting": "gravid Ae. aegypti [1]; [7]", "value": "64.8 ± 4.8"}]}
